Test results: US20030013660A1, “Dioxolane analogs for improved inter-cellular delivery” (Shire BioChem Inc., priority 2000, published 2003)
Values joined by “and” are separate entries in the source; they are usually repeats but may differ in a detail not shown here. Equal entries are not always repeated.

Tests used:
CEM cells = assay: CellTiter 96 cell proliferation assay (chemosensitivity), 48 h; assay type: cell-based
Protocol: (§1) The chemosensitivity of suspension cells lines (e.g., CEM or CEM-derivatives) is assessed using the CellTiter 96 ? proliferation assay. […] Adherent cell lines (e.g., DU145 or DU145^R) are seeded (^˜10^5 cells) in triplicate dishes, 24 h before drug exposure. Growth inhibition is determined by trypsinization and counting cells electronically.

CEM/ARAC8C cells = assay: as above; assay type: cell-based
Protocol: as §1

CEM/dCK cells = assay: as above; assay type: cell-based; details: read-out: EC50 (50% of the dose response curve), 48 h exposure
Protocol: as §1

H-460 [1] = assay: MTT assay at 72 hr (24 hr drug exposure, wash, 48 hr); assay type: cell-based
Protocol: (§2) Exposition of 24hr to drug, washed, and incubated for another 48hr (total of 72hr assay)

MCF-7 [2] = assay: as above; assay type: cell-based; details: Homo sapiens, MCF7, read-out: IC50 MCF-7 24 h, Average, MTT at 72 hr, Average of the experiments
Protocol: as §2

SF-268 [3] = assay: as above; assay type: cell-based; details: Homo sapiens, SF-268, read-out: IC50 SF-268 24 h, Average, MTT at 72 hr, Average of the experiments
Protocol: as §2

CCRF-CEM [4] = assay: MTT or WST-1 assay at 72 hr (24 hr drug exposure, wash, 48 hr); assay type: cell-based; details: Homo sapiens, CCRF-CEM, read-out: IC50 CCRF-CEM 24 h, Average, MMT or WST-1 at 72 hr, Average of the experiments
Protocol: as §2

CEM/dCK- [5] = assay: as above; assay type: cell-based
Protocol: as §2

H-460 [6] = assay: 3H-TdR (3H-thymidine) incorporation assay at 72 hr; assay type: cell-based, Human
MCF-7 [7] = assay: 3H-TdR (3H-thymidine) incorporation assay at 72 hr; assay type: cell-based, Human
SF-268 [8] = assay: 3H-TdR (3H-thymidine) incorporation assay at 72 hr; assay type: cell-based, Human
CCRF-CEM [9] = assay: 3H-TdR (3H-thymidine) incorporation assay at 72 hr; assay type: cell-based
Protocol: (§3) Table of IC50 Values (μM) for Controls
(§4) Exposition of 24 hr to drug, wash, incubated for another 48 hr (total of 72 hr assay)
(§5) (3H-Thymidine Incorporation Assay)

CEM/dCK- [10] = assay: 3H-TdR (3H-thymidine) incorporation assay at 72 hr; assay type: cell-based
Protocol: as §3, §4, §5

Which results are given for Nc1ccn([C@@H]2O[C@H](CO)[C@@H](O)C2(F)F)c(=O)n1 [Gemcitabine, gemcitabine, reference compound]?
EC50 (CEM cells; Homo sapiens, CCRF-CEM, read-out: EC50 (50% of the dose response curve), CEM cells, 48 h exposure): 20 nM; effect of the es transport inhibitor NBMPR on resistance of CEM cells (CEM cells; presence of NBMPR): increased resistance; level of resistance of nucleoside-transport deficient CEM/ARAC8C cells (CEM/ARAC8C cells; CEM/ARAC8C compared to CEM): 431 fold; EC50 (CEM/ARAC8C cells; read-out: EC50 (50% of the dose response curve), CEM/ARAC8C cells, 48 h exposure): 8.63 µM; EC50 (CEM/dCK cells): > 50 µM; IC50 (H-460 [1]; Homo sapiens, NCI-H460, read-out: IC50 H-460 24 h, Average, MTT at 72 hr, Average of the experiments): 72 ± 100 nM; IC50 (H-460 [1]; read-out: IC50 H-460 24 h, MTT at 72 hr, 24 h exposure, single experiment): 12 nM and 86 nM; IC50 (MCF-7 [2]): 78 nM; IC50 (SF-268 [3]): 180 ± 250 nM; IC50 (CCRF-CEM [4]): 20 ± 23 nM; Resistance Factor*, Average (CEM/dCK- [5]; CEM/dCK- versus CCRF-CEM, Average of the experiments): 3987 ± 3871; IC50 (CEM/dCK- [5]; read-out: IC50 CEM/dCK- 24 h, Average, MMT or WST-1 at 72 hr, Average of the experiments): 57 ± 39 µM; IC50 (H-460 [6]; Homo sapiens, NCI-H460, 24 h, read-out: IC50 H-460 24 h, Average, Average ± spread of the repeat determinations, 24 h exposure): 11 nM; IC50 (H-460 [6]; read-out: IC50 H-460 24 h, 24 h drug exposure, wash, another 48 hr, 3H-TdR incorporation at 72 hr): 9.1 nM and 10 nM and 8.3 nM; IC50 (MCF-7 [7]; Homo sapiens, MCF7, 24 h, read-out: IC50 MCF-7 24 h, Average, Average ± spread of the repeat determinations, 24 h exposure): 6.8 nM; IC50 (MCF-7 [7]; read-out: IC50 MCF-7 24 h, 24 h drug exposure, wash, another 48 hr, 3H-TdR incorporation at 72 hr): 8.7 nM and 10 nM; IC50 (SF-268 [8]; Homo sapiens, SF-268, 24 h, read-out: IC50 SF-268 24 h, Average, Average ± spread of the repeat determinations, 24 h exposure): 8.6 nM; IC50 (SF-268 [8]; read-out: IC50 SF-268 24 h, 24 h drug exposure, wash, another 48 hr, 3H-TdR incorporation at 72 hr): 4.5 nM and 10 nM and 9.4 nM; IC50 (CCRF-CEM [9]; Homo sapiens, CCRF-CEM, 24 h, read-out: IC50 CCRF-CEM 24 h, Average, Average ± spread of the repeat determinations, 24 h exposure): 8.4 nM; IC50 (CCRF-CEM [9]; read-out: IC50 CCRF-CEM 24 h, 24 h drug exposure, wash, another 48 hr, 3H-TdR incorporation at 72 hr): 10 nM and 9.2 nM; IC50 (CEM/dCK- [10]; 24 h, read-out: IC50 CEM/dCK- 24 h, Average, Average ± spread of the repeat determinations, 24 h exposure): 66 ± 24 µM; Factor* (Resistance Factor), Average (CEM/dCK- [10]; Average ± spread of the ratios dCK- on wild-type CCRF-CEM): 8618 ± 3614; IC50 (CEM/dCK- [10]; read-out: IC50 CEM/dCK- 24 h, 24 h drug exposure, wash, another 48 hr, deoxycytidine kinase-deficient CCRF-CEM): 51 µM and 41 µM and 30 µM
